# Like-named read-outs stand apart in the source and are kept apart here.
# Experiments:
# [1] = system: carrageenan-induced paw edema; assay: Carrageenan-induced paw edema (in vivo anti-inflammatory activity); set-up: species or system BALB/C albino mice; unit not given beside the values; settings: 10 mg/kg, mice, n = 5
# Method: At 7–8 weeks old, male BALB/C albino mice (29–35 g), were purchased from The National Institute of Health (NIH), Islamabad, Pakistan. Five animals were housed per group and placed in a controlled temperature and humidity-controlled room (22 °C and 66 ± 5%, respectively) in a 12 h light–dark cycle and provided with water and food ad libitum. Ethical approval was taken from the bio-ethical committee of Quaid-I-Azam University (Approval No. BEC-FBS-QAU2018-119) and all protocols were conducted following the Ethical Guide to the Code of Practice for the Housing and Care of Animals Act 1986 (ARRIVE (Animal Research: Reporting In Vivo Experiments) guidelines). The anti-inflammatory activity of the synthesized compounds was evaluated by using the carrageenan-induced rat paw edema assay. To determine the dose response of tetrahydroquinoline derivatives, animals were first given a dose of 0.1, 1 and 10 mg/kg against 100 µL carrageenan (1% solution in normal saline)/paw. Treatment was given 60 min before carrageenan injection. Readings were taken at 4 h post carrageenan injection. The in vivo anti-inflammatory activity was performed following the procedure described by Koksal, et al. in 2017. Paw edema was induced by injecting 100 µL of 1% sterile carrageenan solution into the right hind paw of mice. Synthesized compounds (10 mg/kg), vehicle (saline with 2% DMSO) and drug (acetylsalicylic acid, ASA 10 mg/kg) were administered to the mice orally by gastric intubation 60 min before injecting carrageenan into the right hind paw. The decrease in edema was measured by vernier calipers every 2 h.
# [2] = DPPH free radical scavenging assay; settings: mean ± SEM, n = 3; for IC50 (DPPH radical scavenging): concentration to scavenge 50% of the DPPH radicals
# Method: The % free radical scavenging activity (%FRSA) of the synthetic compounds was evaluated by the discoloration of an unstable DPPH reagent to the stable yellow-colored 2,2-diphenyl-1-picrylhydrazine molecule by accepting one electron from a donor antioxidant; the mechanism is shown in Scheme 2.
# The % FRSA (free radical scavenging activity) of the synthetic compounds was determined by using the method of Tai et al. with slight modifications. The antioxidant potential was determined by detecting the capacity of the synthetic compounds to quench the DPPH free radicals. The synthetic compounds were taken in a 96-well plate at three-fold concentrations of 200 µg/mL, 66.6 µg/mL, 22.2 µg/mL and 7.4 µg/mL. DPPH free radicals were added to entire wells to make up the volume up to 200 µL. DMSO and ascorbic acid were taken as negative and positive controls, respectively. The absorbance was taken at 630nm using a microplate reader (ELx800 BioTek). The percentage of scavenging activity was calculated by the given formula:% scavenging activity = (1 − Abs/Abc) × 100
# Abs = sample’s absorbance; Abc = control’s absorbance.
# [3] = system: Hep-2C cells; assay: MTT assay against Hep-2C cells; assay type: cell-based, Human; settings: read-out: IC50 (Mean ± SEM) Hep-2C Cells
# Method: Hep-2C cell line experiments were performed in the Immunology Lab of the National Institute of Health (NIH), Islamabad, Pakistan. Human cervix carcinoma cells Hep-2C (ATCC HB-8065) were cultured in Dulbecco’s modified Eagle’s medium (DMEM), comprising 10% fetal calf serum (10% FCS) and supplemented with 2 mM L-glutamine, 100 U/mL penicillin, 100 µg/mL streptomycin and 1 mM Na pyruvate, at 37 °C in a humidified 5% CO2 incubator.
# The tetrazolium dye 3-(4, 5-dimethyl thiazolyl-2)-2, 5-diphenyltetrazolium bromide (MTT) was used to assess the cytotoxic potential of the test compounds. In living cells, MTT is reduced into its insoluble purple product formazan, which is measured spectrophotometrically.
# Hep-2C cells, in a density of 1 × 10^6 (> 90% cell viability), were cultured in a 96-well plate and treated with different concentrations of the test compounds for 24, 48 and 72 h. Ten microliters of MTT (1 mg per mL) were added per well followed by incubation for 4 h. Insoluble formazan crystals were dissolved by adding 100 µL of DMSO. Cells were then incubated for another 2 h. Absorbance was measured at 570 nm by a microplate reader. Untreated Hep-2C cells were taken as controls and DMSO as a negative. % cell viability = (abssample − absblank)/(abscontrol − absblank) × 100
# [4] = system: brine shrimp nauplii; assay: Brine shrimp lethality bioassay; assay type: in vivo; settings: 24 h, n = 3
# Method: Brine shrimp eggs were hatched in a shallow rectangular plastic dish and filled with artificial seawater, which was prepared with a commercial salt mixture. In a 96-well plate, 150 µL of artificial seawater was added and 10 nauplii were added into this. Test compounds (400, 200, 100 and 50 µg/mL) were added into each well and the final volume was made up by adding the artificial seawater. The well plate was left uncovered under a lamp. The number of surviving shrimps were counted and recorded after 24 h. The test was repeated in triplicate. […] The percentage mortality (%M) was also calculated by dividing the number of dead nauplii by the total number and then multiplied by 100.
# [5] = MTT cytotoxicity against raw macrophages; assay type: cell-based, albino rats; settings: albino, rat; for viability at 24 h, 1 µM / viability at 24 h, 10 µM / viability at 24 h, 50 µM / viability at 24 h, 100 µM: peritoneal macrophages (raw macrophages), raw macrophages, MTT, read-out: % Cell Viability; for IC50 at 24 h: primary peritoneal macrophages, mean ± SEM, n = 3
# Method: The % cell viability of the synthetic library was evaluated in vitro by measuring the mitochondrial dehydrogenase activity (MTT test) on raw macrophages.
# The cytotoxic potential was assessed by using an MTT 3-(4,5-dimethyl thiazole-2-yl)-2,5- diphenyl tetrazolium bromide assay. Briefly, macrophages were extracted from the peritoneal cavity of albino rats and plated at a density of 1 × 10^6 per well in a 96-well plate and incubated in a 5% CO2 incubator at 37 °C for 24 h. The cells were treated with various concentrations of the test compounds (100 µM, 50 µM, 10 µM and 1 µM) or vehicle alone. The test compounds were first dissolved in DMSO to make a 100 mM stock solution and then further dilutions were made from this stock solution. After 24 h of incubation, 20 µL of MTT (1 mg/mL in normal saline) was added into each well and incubated under the same conditions for 2 h. Mitochondrial succinate dehydrogenase converted MTT in live cells into purple formazan crystals. The formazan crystals were then solubilized in 100 µL DMSO, and the absorbance was measured at 570 nm. The % cell viability was calculated by the following formula; % cell viability = (abssample − absblank)/(abscontrol − absblank) × 100
# [6] = system: NO generated by LPS-induced macrophages; assay: Nitric oxide assay (Griess) in LPS-induced macrophages; assay type: cell-based, murine; settings: Mus musculus, Macrophage, 18 h, LPS 1 µg/mL, read-out: % NO Production (Mean ± SEM)
# Method: A Griess reagent, a spectrophotometric determination of nitrite level, was carried out to measure the nitrite level in the conditioned medium of macrophages treated with lipopolysaccharide (LPS). Sodium nitrite (NaNO2) was used as a standard compound for the standard curve (Figure 8). The NO concentrations were obtained using the standard curve equation: y = 0.0083x + 0.0017, R^2 = 0.9999, where y is the absorbance at 540 nm and x is the NO concentration in µM. The inhibitory activity of the tested compounds towards NO generated by LPS-induced macrophages was obtained from the calculated value of x.
# The anti-inflammatory effect of the synthesized compounds in murine macrophages was evaluated by using the Griess reaction method, described previously. In brief, 1 × 10^6 were plated in a 96-well plate and incubated in a 5% CO2 incubator at 37 °C for 24 h, pre-treated with different concentrations (100 µM, 50 µM, 10 µM and 1 µM) of synthetic compounds for another 2 h and challenged with LPS (1 µg/mL) for an additional 18 h. Equal volumes of Griess reagent (1% sulphanilamide in 50% phosphoric acid and 0.1% naphthyl ethylenediamine dihydrochloride in distilled water and vortexed) and culture medium were mixed and the absorbance was taken at 540 nm. Lipopolysaccharide (LPS) was taken as a blank and piroxicam was taken as a positive control. A t-test was applied to determine the significance of the results.
SMILES,% DPPH Scavenging Activity ([2]; 7.4 µg/mL) [%],% DPPH Scavenging Activity ([2]; 22.22 µg/mL) [%],% DPPH Scavenging Activity ([2]; 66.66 µg/mL) [%],% DPPH Scavenging Activity ([2]; 200 µg/mL) [%],IC50 (DPPH radical scavenging) [2] [µg/mL],LD50 ± SEM (brine shrimp lethality) [4] [µg/mL],"viability at 24 h, 1 µM [5] [%]","viability at 24 h, 10 µM [5] [%]","viability at 24 h, 50 µM [5] [%]","viability at 24 h, 100 µM [5] [%]",IC50 at 24 h [5] [µM],activity at 1 µM [6] [%],activity at 10 µM [6] [%],activity at 50 µM [6] [%],activity at 100 µM [6] [%],other results
"CC(=O)Oc1ccccc1C(=O)O [Acetyl salicylic acid, reference compound]",–,–,–,–,–,–,–,–,–,–,–,–,–,–,–,Paw thickness ([1]; 0 h after carrageenan injection): 2.14 ± 0.08; Paw thickness ([1]; 2 h after carrageenan injection): 2.26 ± 0.05; Paw thickness ([1]; 4 h after carrageenan injection): 2.32 ± 0.04; Paw thickness ([1]; 6 h after carrageenan injection): 2.39 ± 0.02
"O=C1O[C@H]([C@@H](O)CO)C(O)=C1O [Ascorbic Acid, reference compound]",31.35 ± 0.23,52.12 ± 0.31,76.63 ± 0.19,89.01 ± 0.18,41.38 ± 0.34,–,–,–,–,–,–,–,–,–,–,–
"N.N.[Cl][Pt][Cl] [Cisplatin, reference compound]",–,–,–,–,–,–,–,–,–,–,–,–,–,–,–,"IC50 ([3]; 24 h): 19.1 ± 1.06 µM; IC50 ([3]; 48 h): 17.5 ± 1.07 µM; IC50 ([3]; 72 h, listed as cisplatin): 14.6 ± 1.01 µM; IC50 ([3]; 72 h): 14.6 ± 1.01 µM"
"COc1cccc2c1C(=O)c1c(O)c3c(c(O)c1C2=O)C[C@@](O)(C(=O)CO)C[C@@H]3O[C@H]1C[C@H](N)[C@H](O)[C@H](C)O1 [Doxorubicin, reference compound]",–,–,–,–,–,124 ± 1.54,51 ± 1.34,40 ± 0.87,33 ± 1.01,17 ± 0.83,17.1 ± 0.37,–,–,–,–,–
"CN1C(C(=O)Nc2ccccn2)=C(O)c2ccccc2S1(=O)=O [Piroxicam, reference compound]",–,–,–,–,–,–,–,–,–,–,–,25.4 ± 0.45,20.7 ± 0.24,16.5 ± 0.41,13.4 ± 0.54,–
"O=c1c(O)c(-c2ccc(O)c(O)c2)oc2cc(O)cc(O)c12 [Quercetin, reference compound]",42.34 ± 0.36,58.31 ± 0.28,69.81 ± 0.17,81.43 ± 0.21,41.64 ± 1.01,–,–,–,–,–,–,–,–,–,–,–
"c1ccc2c(c1)CCCN2CN1CCNCC1 [SF6, 1-(Piperazine-1-ylmethyl)-1,2,3,4-tetrahydroquinoline]",8.81 ± 0.21,37.75 ± 0.31,50.32 ± 0.18,66.61 ± 0.13,35.89 ± 0.33,121.2 ± 1.09,91 ± 0.99,87 ± 0.82,65 ± 0.76,60 ± 1.21,23.37 ± 0.17,77.3 ± 0.62,72.33 ± 0.59,61.11 ± 0.54,52.44 ± 0.49,–
"CCN(CC)CN1CCCc2ccccc21 [SF11, N-((3,4-dihydroquinolin-1(2H)-yl)methyl)-N-ethylethanamine]",7.76 ± 0.18,15.54 ± 0.09,30.9 ± 0.12,43.93 ± 0.28,53.63 ± 0.13,200 ± 2.11,95 ± 0.91,82 ± 0.84,62 ± 1.2,41 ± 0.83,26.4 ± 0.31,43 ± 0.66,39.8 ± 0.61,33.7 ± 0.53,25.7 ± 0.44,–
